# From article PMC8300687, “A Fine-Tuned Lipophilicity/Hydrophilicity Ratio Governs Antibacterial Potency and Selectivity of Bifurcated Halogen Bond-Forming NBTIs” (Antibiotics, 2021)
# Read-outs that look alike come from different tables or passages of the source.
# How the values were obtained:
# MRSA (QA-11.4) = assay: MIC broth microdilution, MRSA QA-11.4; type: cell-based, methicillin-resistant S. aureus; settings: Staphylococcus aureus, 20 h, read-out: MIC MRSA (QA-11.4)
# Description: (§1) Antimicrobial testing was carried out by the broth microdilution method in 96-well plate format following the Clinical and Laboratory Standards Institute (CLSI) guidelines and European Committee on Antimicrobial Susceptibility Testing (EUCAST) recommendations. Bacterial suspension of specific bacterial strain equivalent to 0.5 McFarland turbidity standard was diluted with cation-adjusted Mueller Hinton broth with TES (Thermo Fisher Diagnostic, Landsmeer, The Netherlands), to obtain a final inoculum of 10^5 CFU/mL. Compounds dissolved in DMSO and inoculum were mixed together and incubated for 18–20 h at 35 °C. Suspensions of Mycobacterium sp. were prepared into a tube of Middelbrook 7H9 broth supplemented with 5% OADC (Thermo Scientific, Trek Diagnostic Systems, West Sussex, UK) and incubated for at least 10 days. After incubation the minimal inhibitory concentration (MIC) values were determined by visual inspection as the lowest dilution of compounds showing no turbidity. Tetracycline was used as a positive control on every assay plate.
# [1] = system: S. agalactiae RDK 047 (QA-990/02); assay: MIC broth microdilution, S. agalactiae; type: cell-based
# Description: as §1
# E. coli (QA-11.8) = assay: MIC broth microdilution, E. coli QA-11.8; type: cell-based
# Description: as §1
# M. avium = assay: MIC, M. avium; type: cell-based
# Description: as §1
# [2] = system: A. baumannii 8C6 (GES-14); assay: MIC broth microdilution, A. baumannii; type: cell-based
# Description: as §1
# S. aureus (ATCC 29213) = assay: MIC broth microdilution, S. aureus ATCC 29213; type: cell-based
# Description: as §1
# MRSA (QA-11.2) = assay: MIC broth microdilution, MRSA QA-11.2; type: cell-based, methicillin-resistant S. aureus; settings: Staphylococcus aureus, 20 h, read-out: MIC MRSA (QA-11.2)
# Description: as §1
# E. coli (QA-11.3) = assay: MIC broth microdilution, E. coli QA-11.3; type: cell-based
# Description: as §1
# [3] = system: E. faecalis DRK 057 (ATCC 29212); assay: MIC broth microdilution, E. faecalis; type: cell-based
# Description: as §1
# [4] = system: P. aeruginosa RDK 184 (DSM 939); assay: MIC broth microdilution, P. aeruginosa; type: cell-based
# Description: as §1
# Human topoisomerase IIα = molecular target: T1, Human topoisomerase IIα (Homo sapiens, UniProt P11388); assay: Human topoisomerase II Alpha Relaxation High Throughput Plate assay; type: biochemical; settings: 0.5 h; residual activity of the enzyme at compound concentration 10 μM, mean ± SD; read-out: Human Topo II (% RA)
# T1 construct: purchased Inspiralis (Norwich, UK)
# T1 sequence (P11388 whole entry): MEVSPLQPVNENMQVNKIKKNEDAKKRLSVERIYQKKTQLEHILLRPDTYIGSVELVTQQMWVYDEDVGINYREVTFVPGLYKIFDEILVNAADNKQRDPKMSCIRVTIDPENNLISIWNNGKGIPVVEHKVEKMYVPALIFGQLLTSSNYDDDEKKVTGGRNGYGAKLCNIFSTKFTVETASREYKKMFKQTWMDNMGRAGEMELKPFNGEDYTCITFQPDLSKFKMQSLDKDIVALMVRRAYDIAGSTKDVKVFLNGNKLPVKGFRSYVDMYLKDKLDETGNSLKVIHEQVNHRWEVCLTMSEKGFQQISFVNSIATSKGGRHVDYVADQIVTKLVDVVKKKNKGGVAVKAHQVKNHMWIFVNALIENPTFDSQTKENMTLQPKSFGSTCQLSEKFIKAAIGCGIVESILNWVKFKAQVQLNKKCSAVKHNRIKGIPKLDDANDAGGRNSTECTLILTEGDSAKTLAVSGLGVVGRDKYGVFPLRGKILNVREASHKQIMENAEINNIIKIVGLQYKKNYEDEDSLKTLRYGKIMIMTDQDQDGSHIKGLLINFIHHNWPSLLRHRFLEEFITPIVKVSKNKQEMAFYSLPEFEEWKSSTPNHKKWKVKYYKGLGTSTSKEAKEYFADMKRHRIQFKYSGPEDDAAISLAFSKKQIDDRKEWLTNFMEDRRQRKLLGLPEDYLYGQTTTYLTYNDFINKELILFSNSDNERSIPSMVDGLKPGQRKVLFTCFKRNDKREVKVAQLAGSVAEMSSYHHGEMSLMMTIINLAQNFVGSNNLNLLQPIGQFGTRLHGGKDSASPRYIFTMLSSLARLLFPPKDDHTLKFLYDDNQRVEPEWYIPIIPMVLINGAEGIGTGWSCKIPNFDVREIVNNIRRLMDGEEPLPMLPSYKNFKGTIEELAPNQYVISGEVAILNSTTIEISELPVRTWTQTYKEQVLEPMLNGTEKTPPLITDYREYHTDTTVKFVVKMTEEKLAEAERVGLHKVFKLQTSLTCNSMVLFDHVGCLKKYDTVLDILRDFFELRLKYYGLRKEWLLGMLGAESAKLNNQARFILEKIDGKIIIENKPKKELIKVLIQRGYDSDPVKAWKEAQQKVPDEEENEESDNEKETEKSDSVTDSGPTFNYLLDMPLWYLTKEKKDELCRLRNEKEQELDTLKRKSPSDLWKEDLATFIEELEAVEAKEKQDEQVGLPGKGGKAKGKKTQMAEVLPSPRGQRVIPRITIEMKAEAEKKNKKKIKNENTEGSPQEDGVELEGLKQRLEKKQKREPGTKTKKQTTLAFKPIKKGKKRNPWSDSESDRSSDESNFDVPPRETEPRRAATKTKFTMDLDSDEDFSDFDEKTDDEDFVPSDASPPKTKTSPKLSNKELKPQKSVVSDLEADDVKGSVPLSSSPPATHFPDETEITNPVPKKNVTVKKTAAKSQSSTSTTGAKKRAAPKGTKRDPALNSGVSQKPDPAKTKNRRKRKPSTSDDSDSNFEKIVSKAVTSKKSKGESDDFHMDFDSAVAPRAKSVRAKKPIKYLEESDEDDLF
# Description: A Human topoisomerase II Alpha Relaxation High Throughput Plate assay kit, purchased from Inspiralis (Norwich, UK) was used to evaluate the selectivity of compounds for the bacterial enzymes over the homologous human topoisomerase II. […] Biotinylated oligonucleotide in wash buffer was immobilized onto the wells and the excess oligonucleotide was washed off with wash buffer. […] The reactions were stopped by adding the TF buffer (50 mM NaOAc (pH 4.7), 50 mM NaCl, and 50 mM MgCl2) to allow the triplex formation (biotin-oligonucleotide-plasmid) for additional 30 min. Afterward, the unbound plasmid was washed off using TF buffer, and the solution of Promega Diamond dye in T10 buffer (10 mM Tris-HCl (pH 8.0), 1 mM EDTA) was added. […] Screening was performed at inhibitor concentrations of 10 μM. Raw data were converted to mean ± SD percentage of residual activity of the enzyme obtained by two independent measurements.
# MRSA (QA-11.7) = assay: MIC broth microdilution, MRSA QA-11.7; type: cell-based, methicillin-resistant S. aureus; settings: Staphylococcus aureus, 20 h, read-out: MIC MRSA (QA-11.7)
# Description: as §1
# [5] = system: S. alachua RDK 030c (QA-1482/04); assay: MIC broth microdilution, S. alachua; type: cell-based
# Description: as §1
# S. pneumoniae (QA-10/02) = assay: MIC broth microdilution, S. pneumoniae; type: cell-based; settings: Streptococcus pneumoniae
# Description: as §1
# HUVEC = assay: Metabolic activity assessment (cytotoxicity), HUVEC; type: cell-based; settings: Homo sapiens, metabolic activity after 72 h treatment
# Description: Cells of the HepG2 line (ATCC® HB-8065™) and HUVEC (ATCC® CRL-1730™) were cultured in Dulbecco’s Modified Eagle Medium (DMEM; Sigma-Aldrich, St. Louis, MO, USA) supplemented with 10% heat-deactivated FBS (Gibco, Grand Island, NE, USA), 2 mM L-glutamine, 100 U/mL penicillin, 100 μg/mL streptomycin (all from Sigma-Aldrich, St. Louis, MO, USA) in a humidified chamber at 37 °C and 5% CO2. The experiments were carried out on passages 7–9 for both cell lines. The tested compounds were dissolved in DMSO and further diluted in culture medium to a desired final concentration. Cells were seeded into 96-well plates at 8 × 10^4 cells/mL (100 μL/well) and incubated for 24 h to attach onto the wells. Cells were treated with 1 μM and 50 μM of each compound of interest or corresponding vehicle as control. […] The metabolic activity was assessed after 72 h treatment using the CellTiter 96 Aqueous One Solution Cell Proliferation Assay (Promega, Madison, WI, USA), in accordance with the manufacturer’s instructions. The absorbance was measured at 492 nm on an automated microplate reader BioTek Synergy HT (BioTek Instruments, Inc., Winooski, VT, USA). Data are presented as the percentage of metabolic activity of control cells stimulated with vehicle or as IC50 value (mean ± SD) from two independent experiments, each conducted in duplicate or triplicate. IC50 values were calculated by a non-linear regression model using Graph Pad Prism 7 software.
# E. coli (ATCC 25922) = assay: MIC broth microdilution, E. coli ATCC 25922; type: cell-based
# Description: as §1
# MRSA = assay: MIC broth microdilution, MRSA; type: cell-based, methicillin-resistant S. aureus; settings: Staphylococcus aureus, read-out: MIC MRSA
# Description: as §1
# [6] = Streptococcus agalactiae; read-out: MIC S. agalactiae RDK 047 (QA-990/02)
# [7] = Escherichia coli, 20 h; read-out: MIC E. coli (QA-11.8)
# [8] = Mycobacterium avium; read-out: MIC M. avium
# [9] = Acinetobacter baumannii; read-out: MIC A. baumannii 8C6 (GES-14)
# [10] = Staphylococcus aureus, ATCC29213; S. aureus ATCC 29213; read-out: S. aureus MIC (converted)
# [11] = Staphylococcus aureus, ATCC29213; read-out: MIC S. aureus (ATCC 29213)
# [12] = resistant to cefoxitin, chloramphenicol, clindamycin, linezolid, tetracycline, thiamulin, trimethoprim
# [13] = Escherichia coli, 20 h; read-out: MIC E. coli (QA-11.3)
# [14] = Enterococcus faecalis, ATCC29212; read-out: MIC E. faecalis DRK 057 (ATCC 29212)
# [15] = Pseudomonas aeruginosa, DSM939; read-out: MIC P. aeruginosa RDK 184 (DSM 939)
# [16] = Salmonella; read-out: MIC S. alachua RDK 030c (QA-1482/04)
# [17] = Escherichia coli, ATCC25922, 20 h; E. coli ATCC 25922; read-out: E. coli MIC (converted)
# [18] = Escherichia coli, ATCC25922; read-out: MIC E. coli (ATCC 25922)
# [19] = Staphylococcus aureus, ATCC29213, read-out: MIC S. aureus (ATCC 29213)
# [20] = Escherichia coli, ATCC25922; E. coli ATCC 25922; read-out: E. coli MIC (converted)
SMILES,MIC (MRSA (QA-11.4); resistant to cefoxitin),"MIC [1, 6]",MIC (E. coli (QA-11.8); [7]),MIC (M. avium; [8]),"MIC [2, 9]",MIC (S. aureus (ATCC 29213); [10]),MIC (S. aureus (ATCC 29213); [11]),MIC (MRSA (QA-11.2); [12]),MIC (E. coli (QA-11.3); [13]),"MIC [3, 14]","MIC [4, 15]",remaining activity at 10 µM (Human topoisomerase IIα),MIC (MRSA (QA-11.7)),"MIC [5, 16]",MIC (S. pneumoniae (QA-10/02)),MIC (E. coli (ATCC 25922); [17]),MIC (E. coli (ATCC 25922); [18]),MIC (MRSA),MIC (E. coli (ATCC 25922); [20]),further results
"COc1ccc2nccc(CCN3CCC(NCc4nc5ccccc5n4C)CC3)c2n1 [Compound 3, 1-(2-(6-Methoxy-1,5-naphthyridin-4-yl)ethyl)-N-((1-methyl-1H-benzo[d]imidazol-2-yl)methyl)piperidin-4-amine]",4 µg/mL,< 1 µg/mL,64 µg/mL,> 128 µg/mL,> 128 µg/mL,2.32 µM,1 µg/mL,4 µg/mL,128 µg/mL,4 µg/mL,> 128 µg/mL,94.7 ± 4.82%,8 µg/mL,> 128 µg/mL,2 µg/mL,297 µM,> 128 µg/mL,2 µg/mL,–,IC50 (HUVEC): > 50 µM
"COc1ccc2nccc(CCN3CCC(NC(=O)c4cn5cccc(C#N)c5n4)CC3)c2n1 [Compound 7, 8-Cyano-N-(1-(2-(6-methoxy-1,5-naphthyridin-4-yl)ethyl)piperidin-4-yl)imidazo[1,2-a]pyridine-2-carboxamide]",–,–,–,–,–,281 µM,–,–,–,–,–,90.3 ± 7.56%,> 128 µg/mL,–,128 µg/mL,281 µM,–,> 128 µg/mL,–,"MIC (MRSA (QA-11.4)): > 128 µg/mL; MIC ([1]; Streptococcus agalactiae, read-out: MIC S. agalactiae RDK 047 (QA-990/02)): > 128 µg/mL; MIC (E. coli (QA-11.8); Escherichia coli, 20 h, read-out: MIC E. coli (QA-11.8)): > 128 µg/mL; MIC (M. avium; Mycobacterium avium, read-out: MIC M. avium): > 128 µg/mL; MIC ([2]; Acinetobacter baumannii, read-out: MIC A. baumannii 8C6 (GES-14)): > 128 µg/mL; MIC (S. aureus (ATCC 29213); [19]): > 128 µg/mL; MIC (MRSA (QA-11.2)): > 128 µg/mL; MIC (E. coli (QA-11.3); Escherichia coli, 20 h, read-out: MIC E. coli (QA-11.3)): > 128 µg/mL; MIC ([3]; Enterococcus faecalis, ATCC29212, read-out: MIC E. faecalis DRK 057 (ATCC 29212)): > 128 µg/mL; MIC ([4]; Pseudomonas aeruginosa, DSM939, read-out: MIC P. aeruginosa RDK 184 (DSM 939)): > 128 µg/mL; MIC ([5]; Salmonella, read-out: MIC S. alachua RDK 030c (QA-1482/04)): > 128 µg/mL; MIC (E. coli (ATCC 25922); Escherichia coli, ATCC25922, read-out: MIC E. coli (ATCC 25922)): > 128 µg/mL"
COc1ccc2nccc(CCN3CCC(NCc4ccccc4)CC3)c2n1 [Compound 11],8 µg/mL,16 µg/mL,64 µg/mL,> 128 µg/mL,64 µg/mL,10.6 µM,4 µg/mL,8 µg/mL,32 µg/mL,16 µg/mL,> 128 µg/mL,97 ± 9.58%,8 µg/mL,> 128 µg/mL,2 µg/mL,–,64 µg/mL,8 µg/mL,170 µM,–
COc1ccc2nccc(CCN3CCC(NCc4ccc(F)cc4)CC3)c2n1 [Compound 12],4 µg/mL,8 µg/mL,16 µg/mL,32 µg/mL,32 µg/mL,2.54 µM,1 µg/mL,4 µg/mL,8 µg/mL,8 µg/mL,> 128 µg/mL,101 ± 11.2%,4 µg/mL,128 µg/mL,2 µg/mL,–,32 µg/mL,2 µg/mL,81.1 µM,–
COc1ccc2nccc(CCN3CCC(NCc4ccc(Cl)cc4)CC3)c2n1 [Compound 13],0.5 µg/mL,1 µg/mL,2 µg/mL,4 µg/mL,4 µg/mL,0.3 µM,–,0.25 µg/mL,2 µg/mL,1 µg/mL,> 128 µg/mL,102 ± 0.84%,0.5 µg/mL,32 µg/mL,0.5 µg/mL,–,4 µg/mL,0.25 µg/mL,9.73 µM,MIC (S. aureus (ATCC 29213); [19]): 0.125 µg/mL
COc1ccc2nccc(CCN3CCC(NCc4ccc(Br)cc4)CC3)c2n1 [Compound 14],–,0.5 µg/mL,1 µg/mL,2 µg/mL,1 µg/mL,0.07 µM,0.031 µg/mL,–,1 µg/mL,1 µg/mL,128 µg/mL,98.2 ± 2.72%,0.0625 µg/mL,16 µg/mL,0.125 µg/mL,–,2 µg/mL,0.062 µg/mL,4.39 µM,MIC (MRSA (QA-11.4)): 0.125 µg/mL; MIC (MRSA (QA-11.2)): 0.125 µg/mL
COc1ccc2nccc(CCN3CCC(NCc4ccc(C(N)=O)cc4)CC3)c2n1 [Compound 17],8 µg/mL,> 128 µg/mL,> 128 µg/mL,128 µg/mL,128 µg/mL,4.77 µM,2 µg/mL,8 µg/mL,128 µg/mL,128 µg/mL,> 128 µg/mL,97.8 ± 2.21%,4 µg/mL,> 128 µg/mL,16 µg/mL,305 µM,> 128 µg/mL,4 µg/mL,–,–
COc1ccc2nccc(CCN3CCC(NCc4ccc(N(C)C)cc4)CC3)c2n1 [Compound 18],0.5 µg/mL,0.25 µg/mL,8 µg/mL,128 µg/mL,8 µg/mL,0.31 µM,–,0.5 µg/mL,8 µg/mL,1 µg/mL,> 128 µg/mL,94.2 ± 1.33%,0.5 µg/mL,128 µg/mL,0.25 µg/mL,–,32 µg/mL,–,78.5 µM,–
